Results published in US20230250064A1, “PREPARATION METHOD FOR FUSED PYRAZOLE-TYPE COMPOUND” (SHANGHAI MEIYUE BIOTECH DEVELOPMENT CO., LTD., priority 2020, published 2023).

Molecular target: T1, human IRAK4 (Homo sapiens, UniProt Q9NWZ3)
T1 construct: purchased Carna
T1 sequence (Q9NWZ3 1-460): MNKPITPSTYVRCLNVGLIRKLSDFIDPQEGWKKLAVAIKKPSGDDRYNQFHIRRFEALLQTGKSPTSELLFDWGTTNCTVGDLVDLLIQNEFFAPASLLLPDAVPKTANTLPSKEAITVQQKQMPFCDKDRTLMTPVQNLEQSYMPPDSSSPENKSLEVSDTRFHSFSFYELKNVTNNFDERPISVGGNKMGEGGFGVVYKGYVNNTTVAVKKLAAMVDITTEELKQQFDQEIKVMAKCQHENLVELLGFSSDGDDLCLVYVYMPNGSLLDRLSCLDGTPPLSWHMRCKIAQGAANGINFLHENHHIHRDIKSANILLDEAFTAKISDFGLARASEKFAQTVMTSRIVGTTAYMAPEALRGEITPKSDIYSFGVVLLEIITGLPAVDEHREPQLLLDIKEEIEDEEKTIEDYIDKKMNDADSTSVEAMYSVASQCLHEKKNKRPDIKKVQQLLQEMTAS
Assay: IRAK4 MSA (Mobility-Shift Assay), inhibition of human IRAK4 kinase activity
Type: biochemical
Details: GST-IRAK4 1 nM, ATP at Km concentration (37 μM), 28° C. for 1 h, Caliper EZ Reader; read-out: IC50 against human IRAK4 kinase activity
Procedure: The inhibitory activity of the compounds against IRAK4 at the Km concentration of ATP was measured in IRAK4 MSA (Mobility-Shift Assay, a mobility detection of microfluidic chip technology).
A recombinant fusion protein of N-terminal GST (glutathione-S-transferase) and human IRAK4 was used as enzyme (GST-IRAK4, kinase IRAK4 (Carna)) at a final concentration of 1 nM; ATP (Sigma) was at a final concentration of 37 μM; the substrates used for the kinase reaction were 5-FAM (5-carboxyfluorescein)-labeled polypeptide (5-FAM-IPTSPITTTYFFFKKK-COOH) and substrate peptide FAM-P8 (GL Biochem) at final concentrations of 5 μM.
In this assay, a 500 μM stock solution of the compounds was prepared in 100% DMSO, and serially 4-fold diluted to the 10th concentrations with 100% DMSO, followed by a 10-fold dilution with the compound buffer (50 mM HEPES, pH 7.5, 0.00015% Brij-35) to give intermediate dilutions of the compounds at final concentrations of 10 μM-0.04 nM containing 10% DMSO. The intermediate dilutions was transferred into a black 384-well plate at a volume of 5μL.
Kinase IRAK4 was diluted to 2.5 nM with the kinase buffer (50 mM HEPES, pH 7.5, 0.00015% Brij-35, 2 mM DTT). 10 μL of the IRAK4 dilution was transferred to the 384-well plate and co-incubated with the compound for 10-15 min.
The substrate and ATP were diluted to 12.5 μM and 92.5 μM with reaction buffer (50 mM HEPES, pH 7.5, 0.00015% Brij-35, 10 mM MgCl2), respectively. 10 μL of the dilutions was transferred to the 384-well plate and incubated at 28° C. for 1 h. The reaction was terminated by adding 25 μL of 50 mM EDTA to the 384-well plate.
The inhibition rates of IRAK4 by the compounds were calculated by measuring the conversion rate of phosphorylation of the substrate using a Caliper EZ Reader (PerkinElmer) and the IC50 was calculated by XL-fit software.

Q: `COc1cc2nn([C@H]3C[C@H](C(C)(C)O)C3)cc2cc1NC(=O)c1cccc(C(F)(F)F)n1` [Compound 1, 6-trifluoromethyl-pyridine-2-carbomoylic acid {2-[3′-(1-hydroxy-1-methyl-ethyl)-cyclobutyl]-6-methoxy-2H-indazol-5-yl} -amide] was tested. Which IC50 did it give?
A: Its IC50 is 1.1 nM.

Q: `COc1cc2nn([C@H]3CC[C@H](O)CC3)cc2cc1NC(=O)c1cccc(C2CC2)[n+]1[O-]` [Compound 2, 6-cyclopropyl-1-oxy-pyridine-2-carbomoylic acid [2-(4′-hydroxy-trans-cyclohexyl)-6-methoxy-2H-indazol-5-yl]-amide] was tested. Which IC50 did it give?
A: Its IC50 is 2.5 nM.

Q: Which IC50 does the source give for `COc1cc2nn([C@H]3CC[C@](C)(O)CC3)cc2cc1NC(=O)c1cccc(C)[n+]1[O-]` [Compound 4, 6-methyl-1oxo-pyridine-2-carbomoylic acid [2-(4′-hydroxy-4-methyl-cyclohexyl)-6-methoxy-2H-indazol-5-yl]-amide] here?
A: The IC50 was 4.6 nM.

Q: How did the IC50 turn out when “quinoline-8-carbomoylic acid [2-(4′-hydroxy-4-methyl-cyclohexyl)-6-methoxy-2H-indazol-5-yl]-amide [Compound 3]” was run?
A: The IC50 was 3.3 nM.
